In PubChem BioAssay AID248 (DTP/NCI, 2004):
Several values for one entry are separate records, joined by “and”; a condition that tells them apart may be missing. Equal entries are not always repeated. Inconclusive results and toxic doses are left out. Cut-off read from the data, not from the text of the source: active = T/C of 150% or more; inactive = T/C below 125%.

System: L1210 leukemia ip in BDF1 mice, survival T/C
Assay: NCI In Vivo Anticancer Drug Screen. Data for tumor model L1210 Leukemia (intraperitoneal) in B6D2F1 (BDF1) mice
Conditions: endpoint: mean survival time, higher = longer survival
Method in brief: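 Antitumor effect is assessed in tumor-bearing animals. Survival in the compound arm is compared with a vehicle-dosed control arm and expressed as their quotient.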

[1] = dose: 100.0 mg/kg/injection, schedule: Q04DX003 (ip), vehicle: saline with Tween-80
[2] = dose: 75.0 mg/kg/injection, schedule: Q01DX001 (ip), vehicle: saline
[3] = dose: 75.0 mg/kg/injection, schedule: Q01DX001 (ip), vehicle: other
[4] = dose: 25.0 mg/kg/injection, schedule: Q01DX009 (ip), vehicle: saline with Tween-80
[5] = dose: 50.0 mg/kg/injection, schedule: Q01DX009 (ip), vehicle: saline with Tween-80
[6] = dose: 100.0 mg/kg/injection, schedule: Q01DX009 (ip), vehicle: saline with Tween-80
[7] = dose: 100.0 mg/kg/injection, schedule: Q04DX003 (ip), vehicle: Klucel (hydroxypropylcellulose) (HPC)
[8] = dose: 25.0 mg/kg/injection, schedule: Q04DX002 (ip), vehicle: Klucel (hydroxypropylcellulose) (HPC)
[9] = dose: 50.0 mg/kg/injection, schedule: Q04DX002 (ip), vehicle: Klucel (hydroxypropylcellulose) (HPC)
[10] = dose: 150.0 mg/kg/injection, schedule: Q01DX001 (ip), vehicle: saline
[11] = dose: 50.0 mg/kg/injection, schedule: Q01DX009 (ip), vehicle: Klucel (hydroxypropylcellulose) (HPC)
[12] = dose: 100.0 mg/kg/injection, schedule: Q01DX009 (ip), vehicle: Klucel (hydroxypropylcellulose) (HPC)

Measured: T/C

C=CCNC(=O)/C=C/C(=O)NCC=C
inactive: dose: 25.0 mg/kg/injection, schedule: Q04DX003 (ip), vehicle: saline with Tween-80 97 % of control | dose: 50.0 mg/kg/injection, schedule: Q04DX003 (ip), vehicle: saline with Tween-80 97 % of control | [1] 89 % of control

CCN(CC)C1=C(Cl)C(=O)C(=O)c2cccnc21
inactive: dose: 18.8 mg/kg/injection, schedule: Q04DX003 (ip), vehicle: saline 97 % of control | dose: 37.5 mg/kg/injection, schedule: Q04DX003 (ip), vehicle: saline 103 % of control | [2] 97 % of control

O=[N+]([O-])c1cc(/C=N/N=C2c3ccccc3-c3ccccc32)ccc1Cl
inactive: [3] 86 % of control | dose: 300.0 mg/kg/injection, schedule: Q01DX001 (ip), vehicle: other 91 % of control

COC(=O)C1(C(=O)OC)C(c2ccccc2)C1(C(=O)OC)C(=O)OC
inactive: dose: 12.5 mg/kg/injection, schedule: Q01DX009 (ip), vehicle: saline with Tween-80 94 % of control | [4] 98 % of control | [5] 94 % of control | [6] 91 % of control

CCNCc1cc(Nc2cc(C)nc(/N=C(\N)Nc3ccc(Cl)c(Cl)c3)n2)ccc1OC
inactive: dose: 3.12 mg/kg/injection, schedule: Q01DX009 (ip), vehicle: Klucel (hydroxypropylcellulose) (HPC) 94 % of control | dose: 6.25 mg/kg/injection, schedule: Q01DX009 (ip), vehicle: Klucel (hydroxypropylcellulose) (HPC) 103 % of control | dose: 12.5 mg/kg/injection, schedule: Q01DX009 (ip), vehicle: Klucel (hydroxypropylcellulose) (HPC) 97 % of control | dose: 25.0 mg/kg/injection, schedule: Q04DX003 (ip), vehicle: Klucel (hydroxypropylcellulose) (HPC) 101 % of control | dose: 50.0 mg/kg/injection, schedule: Q04DX003 (ip), vehicle: Klucel (hydroxypropylcellulose) (HPC) 111 % of control | [3] 97 % of control | [7] 95 % of control

CCCCC[P+](c1ccccc1)(c1ccccc1)c1ccccc1
inactive: dose: 12.5 mg/kg/injection, schedule: Q04DX002 (ip), vehicle: Klucel (hydroxypropylcellulose) (HPC) 109 % of control | [8] 106 % of control | [9] 109 % of control

O=C(CNC(=O)Nc1ccc(F)cc1)NNC(=O)Nc1ccc(Cl)c([N+](=O)[O-])c1
inactive: [4] 94 % of control | [5] 93 % of control | [6] 102 % of control

O=C(C[n+]1ccccc1/C=N/Nc1ccccc1)c1ccccc1
inactive: [2] 95 % of control | [10] 95 % of control | dose: 300.0 mg/kg/injection, schedule: Q01DX001 (ip), vehicle: saline 97 % of control

CCC(CCl)NC(CC(C)C)CC(C)C (stereo not given)
inactive: [2] 93 % of control and 98 % of control | [10] 96 % of control and 107 % of control

NCCOP(=O)(O)O
inactive: dose: 50.0 mg/kg/injection, schedule: Q01DX009 (ip), vehicle: saline 95 % of control | dose: 100.0 mg/kg/injection, schedule: Q01DX009 (ip), vehicle: saline 98 % of control | dose: 200.0 mg/kg/injection, schedule: Q01DX009 (ip), vehicle: saline 106 % of control

CCOC(=O)C(C#N)NC(C)=O (stereo not given)
inactive: [7] 102 % of control | dose: 200.0 mg/kg/injection, schedule: Q04DX003 (ip), vehicle: Klucel (hydroxypropylcellulose) (HPC) 102 % of control | dose: 400.0 mg/kg/injection, schedule: Q04DX003 (ip), vehicle: Klucel (hydroxypropylcellulose) (HPC) 111 % of control

O=C(CBr)CC(O)(C(F)(F)F)C(F)(F)F
inactive: dose: 3.0 mg/kg/injection, schedule: Q01DX009 (ip), vehicle: saline 93 % of control | dose: 6.0 mg/kg/injection, schedule: Q01DX009 (ip), vehicle: saline 103 % of control | dose: 12.0 mg/kg/injection, schedule: Q01DX009 (ip), vehicle: saline 103 % of control

Nc1cc(=O)[nH]c(S(=O)O)n1
inactive: [11] 100 % of control | [12] 98 % of control | dose: 200.0 mg/kg/injection, schedule: Q01DX009 (ip), vehicle: Klucel (hydroxypropylcellulose) (HPC) 98 % of control

COC(=O)C(N=Nc1ccc(C)cc1)C(C)=O (stereo not given)
inactive: dose: 25.0 mg/kg/injection, schedule: Q01DX009 (ip), vehicle: Klucel (hydroxypropylcellulose) (HPC) 97 % of control | [11] 94 % of control | [12] 89 % of control

COC(=O)C(CCl)NC(=O)NCCCl (stereo not given)
inactive: dose: 100.0 mg/kg/injection, schedule: Q01DX001 (ip), vehicle: Klucel (hydroxypropylcellulose) (HPC) 96 % of control | dose: 200.0 mg/kg/injection, schedule: Q01DX001 (ip), vehicle: Klucel (hydroxypropylcellulose) (HPC) 96 % of control | dose: 400.0 mg/kg/injection, schedule: Q01DX001 (ip), vehicle: Klucel (hydroxypropylcellulose) (HPC) 96 % of control

O=C1C=CC(=O)c2[nH]c(=O)ccc21
inactive: dose: 5.0 mg/kg/injection, schedule: Q01DX001 (ip), vehicle: saline 104 % of control | dose: 10.0 mg/kg/injection, schedule: Q01DX001 (ip), vehicle: saline 107 % of control

CN1CCN(c2ccc([N+](=O)[O-])c3no[n+]([O-])c23)CC1
inactive: dose: 0.2 mg/kg/injection, schedule: Q03HX024 (ip), vehicle: saline with Tween-80 104 % of control | dose: 0.39 mg/kg/injection, schedule: Q03HX024 (ip), vehicle: saline with Tween-80 100 % of control | dose: 0.78 mg/kg/injection, schedule: Q03HX024 (ip), vehicle: saline with Tween-80 111 % of control | dose: 1.56 mg/kg/injection, schedule: Q03HX024 (ip), vehicle: saline with Tween-80 105 % of control | dose: 3.13 mg/kg/injection, schedule: Q03HX024 (ip), vehicle: saline with Tween-80 109 % of control | dose: 7.5 mg/kg/injection, schedule: Q01DX009 (ip), vehicle: saline 108 % of control and 115 % of control | dose: 10.0 mg/kg/injection, schedule: Q01DX009 (ip), vehicle: saline 118 % of control | dose: 15.0 mg/kg/injection, schedule: Q01DX009 (ip), vehicle: saline 115 % of control and 124 % of control | dose: 25.0 mg/kg/injection, schedule: Q01DX009 (ip), vehicle: saline 117 % of control | [8] 104 % of control | [9] 104 % of control | dose: 100.0 mg/kg/injection, schedule: Q04DX002 (ip), vehicle: Klucel (hydroxypropylcellulose) (HPC) 113 % of control

CCOc1ccc(/C=C/c2cc[n+](C)cc2)cc1OC
inactive: dose: 25.0 mg/kg/injection, schedule: Q01DX001 (ip), vehicle: saline with Tween-80 108 % of control | dose: 50.0 mg/kg/injection, schedule: Q01DX001 (ip), vehicle: saline with Tween-80 95 % of control | dose: 100.0 mg/kg/injection, schedule: Q01DX001 (ip), vehicle: saline with Tween-80 93 % of control

CCCCCCCS(=O)(=O)CCCCCCC
inactive: dose: 25.6 mg/kg/injection, schedule: Q04DX002 (ip), vehicle: saline with Tween-80 95 % of control | dose: 64.0 mg/kg/injection, schedule: Q04DX002 (ip), vehicle: saline with Tween-80 91 % of control | [6] 94 % of control | [1] 93 % of control | dose: 160.0 mg/kg/injection, schedule: Q04DX002 (ip), vehicle: saline with Tween-80 91 % of control | dose: 200.0 mg/kg/injection, schedule: Q01DX009 (ip), vehicle: saline with Tween-80 94 % of control | dose: 200.0 mg/kg/injection, schedule: Q04DX003 (ip), vehicle: saline with Tween-80 95 % of control | dose: 400.0 mg/kg/injection, schedule: Q01DX009 (ip), vehicle: saline with Tween-80 98 % of control | dose: 400.0 mg/kg/injection, schedule: Q04DX002 (ip), vehicle: saline with Tween-80 95 % of control | dose: 400.0 mg/kg/injection, schedule: Q04DX003 (ip), vehicle: saline with Tween-80 90 % of control
